Experimental data taken from publication PMC2114115 (The Journal of Cell Biology, 1986).

How the values were obtained:
GH4C1 cells [1] = assay: Release and degradation of cell-bound [125I-Tyr1]SRIF; format: cell-based, rat; details: for effect on receptor-mediated degradation of [125I-Tyr1]SRIF: Table V conditions, compound in dissociation medium, 60 min at 37C; for rate of dissociation or degradation of prebound [125I-Tyr1]SRIF / half-time of release of radioactivity after [125I-Tyr1]SRIF binding: 37C; for rate of dissociation or degradation of prebound [125I-Tyr1]SRIF: chloroquine 0.1 mM, leupeptin 0.1 mg/ml; for half-time of release of radioactivity after [125I-Tyr1]SRIF binding: Fig. 6, absence or presence of 0.1 mM chloroquine, or 0.1 mg/ml leupeptin, 35 pM, 60 min binding
GH4C1 cell membranes = assay: Binding, dissociation and degradation of [125I-Tyr1]SRIF with cell membranes; design: species or system rat; details: Table IV; dissociation incubation 4 h at 37C; without or with 100 nM SRIF
GH4C1 cells [2] = details: Koch and Schonbrunn, unpublished observations; cited from earlier work
GH4C1 cells [3] = assay: Acid/salt extraction: cellular distribution of receptor-bound 125I-EGF; format: cell-based, rat; details: pulse-chase at 37 degrees C after binding 5 h at 4C, 80 pM (Fig. 2)
GH4C1 cells [4] = assay: Release and degradation of cell-bound 125I-EGF; format: cell-based, rat; details: 37C; for half-time for the release of 125I-tyrosine derived from receptor-bound 125I-EGF: Fig. 6, control cells or 0.1 mM chloroquine, 59 pM, 90 min binding; for subsequent rate of release of 125I-tyrosine from 125I-EGF: chloroquine 0.1 mM, leupeptin 0.1 mg/ml
GH4C1 cells [5] = details: 37C; cited from earlier work
[6] = system: SRIF receptors of GH4C1 cells; assay: Specific binding of [125I-Tyr1]SRIF to GH4C1 cells; design: species or system rat; details: for cellular accumulation of total or acid-resistant [125I-Tyr1]SRIF: ammonium chloride 20 mM, leupeptin 0.1 mg/ml; for [125I-Tyr1]SRIF bound, Total: Table III, control, leupeptin 0.1 mg/ml or chloroquine 0.1 mM
[7] = target: EGF receptors of GH4C1 cells (Rattus norvegicus, UniProt G3V6K6); assay: Specific binding of 125I-EGF to GH4C1 cells; details: for amount of cell-associated 125I-EGF: Fig. 5, prolonged 37C binding incubations, chloroquine 0.1 mM, leupeptin 0.1 mg/ml
[8] = Table V Exp. 2, control or a2-macroglobulin 50 ug/ml

Compound: somatostatin [SRIF]
- % Intact [125I-Tyr1]SRIF (GH4C1 cells [1]; Table V Exp. 1, SRIF 0.1 mM in dissociation medium): 65%
- effect on receptor-mediated degradation of [125I-Tyr1]SRIF (GH4C1 cells [1]): only a slight effect
- 125I bound (GH4C1 cell membranes): 9,695 cpm
- 125I dissociated (GH4C1 cell membranes): 10,791 cpm
- time to maximal inhibitory effect on hormone secretion (GH4C1 cells [2]): ≤ 5 min

Compound: O=C(O)c1cc[c]([Hg][Cl])cc1 [chloromercuribenzoate]
- effect on receptor-mediated degradation of [125I-Tyr1]SRIF (GH4C1 cells [1]): substantially inhibited

Compound: a2-macroglobulin
- 125I released (GH4C1 cells [1]; [8]): 2,217 cpm
- % Intact [125I-Tyr1]SRIF (GH4C1 cells [1]; [8]): 64%
- effect on receptor-mediated degradation of [125I-Tyr1]SRIF (GH4C1 cells [1]): same small effect

Compound: bacitracin
- effect on receptor-mediated degradation of [125I-Tyr1]SRIF (GH4C1 cells [1]): same small effect

Compound: Cc1ccc(S(=O)(=O)NC(CCCCN)C(=O)CCl)cc1 [TLCK, Na-p-tosyl-L-lysine chloromethyl ketone]
- effect on receptor-mediated degradation of [125I-Tyr1]SRIF (GH4C1 cells [1]): same small effect

Compound: 125I-EGF: radioiodinated epidermal growth factor, chloramine T iodination
- half-time of transfer from acid-sensitive to acid-resistant compartment (GH4C1 cells [3]): 2 min
- half-time for the release of 125I-tyrosine derived from receptor-bound 125I-EGF (GH4C1 cells [4]): 45 min

Compound: epidermal growth factor (NSYPGCPSSYDGYCLNGGVCMHIESLDSYTCNCVIGYSGDRCQTRDLRWWELR; not fully specified; Epidermal growth factor; UniProt P01132 977-1029, looked up) [EGF]
- time for transformation from acid-extractable to acid-resistant state (GH4C1 cells [5]): ≤ 10 min

Compound: Cc1ccc(S(=O)(=O)N[C@@H](Cc2ccccc2)C(=O)CCl)cc1 [TPCK, L-l-tosylamide 2-phenylethyl chloromethyl ketone]
- effect on receptor-mediated degradation of [125I-Tyr1]SRIF (GH4C1 cells [1]): substantially inhibited

Compound: CC(=O)N[C@@H](CC(C)C)C(=O)N[C@@H](CC(C)C)C(=O)N[C@H](C=O)CCCNC(=N)N [leupeptin]
- cellular accumulation of total or acid-resistant [125I-Tyr1]SRIF ([6]; 37C, chloroquine 0.1 mM): none of these inhibitors increased
- [125I-Tyr1]SRIF bound, Total ([6]; chase 30 min at 37C): 5,537 cpm
- [125I-Tyr1]SRIF bound, Total ([6]; chase 60 min at 37C): 3,385 cpm
- amount of cell-associated 125I-EGF [7]: increased
- rate of dissociation or degradation of prebound [125I-Tyr1]SRIF (GH4C1 cells [1]): did not alter
- half-time of release of radioactivity after [125I-Tyr1]SRIF binding (GH4C1 cells [1]): 48 min
- subsequent rate of release of 125I-tyrosine from 125I-EGF (GH4C1 cells [4]): decreased

Compound: CC(C)C[C@H](NP(=O)(O)O[C@@H]1O[C@@H](C)[C@H](O)[C@@H](O)[C@H]1O)C(=O)N[C@@H](Cc1c[nH]c2ccccc12)C(=O)O [Phosphoramidon, phosphoramidon]
- effect on receptor-mediated degradation of [125I-Tyr1]SRIF (GH4C1 cells [1]): substantially inhibited

Compound: O=S(=O)(F)Cc1ccccc1 [PMSF, phenylmethylsulfonyl fluoride]
- effect on receptor-mediated degradation of [125I-Tyr1]SRIF (GH4C1 cells [1]): same small effect

Compound: NC(=O)CI [iodoacetamide]
- effect on receptor-mediated degradation of [125I-Tyr1]SRIF (GH4C1 cells [1]): substantially inhibited

Compound: CCN(CC)CCCC(C)Nc1ccnc2cc(Cl)ccc12 (centres unmarked) [chloroquine]
- cellular accumulation of total or acid-resistant [125I-Tyr1]SRIF ([6]; 37C, chloroquine 0.1 mM): none of these inhibitors increased
- [125I-Tyr1]SRIF bound, Total ([6]; chase 30 min at 37C): 3,491 cpm
- [125I-Tyr1]SRIF bound, Total ([6]; chase 60 min at 37C): 1,725 cpm
- decrease in [125I-Tyr1]SRIF binding ([6]; chloroquine 0.1 mM, 37C, all times): 50%
- amount of cell-associated 125I-EGF [7]: increased
- rate of dissociation or degradation of prebound [125I-Tyr1]SRIF (GH4C1 cells [1]): did not alter
- half-time of release of radioactivity after [125I-Tyr1]SRIF binding (GH4C1 cells [1]): 41 min
- subsequent rate of release of 125I-tyrosine from 125I-EGF (GH4C1 cells [4]): decreased
- half-time for the release of 125I-tyrosine derived from receptor-bound 125I-EGF (GH4C1 cells [4]): 150 min

Compound: Cl.N [ammonium chloride]
- [125I-Tyr1]SRIF binding ([6]; 20 mM ammonium chloride, 4 h at 37C, same experiment): unaffected
- cellular accumulation of total or acid-resistant [125I-Tyr1]SRIF ([6]; 37C, chloroquine 0.1 mM): none of these inhibitors increased
- amount of 125I-EGF bound to cells ([7]; 20 mM ammonium chloride, 4 h at 37C): 210 % of untreated controls

Compound: COc1ccc(C[C@H](N)C(=O)N[C@H]2[C@@H](O)[C@H](n3cnc4c(N(C)C)ncnc43)O[C@@H]2CO)cc1 [puromycin]
- effect on receptor-mediated degradation of [125I-Tyr1]SRIF (GH4C1 cells [1]): same small effect
